Among the data in patent publication US12546786B2, “Circulatory biomarkers for placental or fetal health” (THE UNIVERSITY OF MELBOURNE, priority 2018, dated 2026) are HTR8 proliferation values, retold here.

The assay has as its system HTR8 cells. In words: HTR8 placental cell line proliferation monitored in real time using the xCELLigence system. It is filed as cell-based. Conditions: 5 or 10 uM of SRI31215 administered to HTR8 placental cell line. The method, then:
FIGS. 3A through P are graphical representations showing observational studies to determine whether placental SPINT1 is altered in cases of human SGA. To do this, a cohort of placentas was selected from either control, preeclamptic or SGA pregnancies. […] No change in SPINT1 mRNA expression was detected in placentas collected from patients who delivered at >34 weeks gestation (B). SPINT1 protein expression was assessed using Western blot and commercially available antibodies (C,D). […] Growth restriction is often associated with placental insufficiency and poor oxygen delivery to the placenta, resulting in placental hypoxia. The inventors assessed whether exposure of primary placental cells (cytotrophoblast cells isolated from term human placentas) to low oxygen conditions (1% Oxygen for hypoxia vs 8% oxygen for normoxia) would alter SPINT1 mRNA and protein expression and protein secretion. […] Given previous evidence in mice that a lack of SPINT1 may be associated with a poorly developed placenta, the inventors next set out to assess whether silencing SPINT1 using siRNA knockdown in the HTR8 placental cell line would affect cellular proliferation assessed in real time using the xCELLigence system. […] To do this, a commercially available SPINT1 mimetic called SRI31215 (Glixx laboratories) was administered to HTR8 cells and their proliferation monitored using the xCELLigence system. […]

With `CC1CN(CC2CCN(Cc3ccccc3)CC2)C(=O)N(c2cccc(C(=N)N)c2)C1.O=C(O)C(F)(F)F` (stereo not shown) [SRI31215], the HTR8 proliferation result is listed as “enhanced HTR8 proliferation”.
